Data: patent EP2265631B1, “NOVEL ANTIMICROBIAL PEPTIDES AND THEIR APPLICATION” (Ustav Organicke Chemie a Biochemie Akademie Ved Ceske …, priority 2008, dated 2009)
Ends that are not written are not given here. Peptide text beside a SMILES is read from it.

How the values were obtained:
Bacilus subtilis = test: Determination of antimicrobial activity (MIC, bacterial growth in LB broth); type: cell-based; conditions: minimum inhibitory concentration (MIC) per method, 37°C, 20 h, read-out: Antimicrobial activity IC50 [µM] B.s.
Method: (§1) Antimicrobial activity was determined as a quantitative minimum inhibitory concentration (MIC) by observing bacterial growth in the presence of different concentrations of tested peptides. Mid-exponential phase bacteria were added to the solutions of the tested antimicrobial peptide at different concentrations (0.5 to 100 µM) in LB broth in multi-well plates. The plates were incubated at 37°C for 20 h while being continuously shaken in a Bioscreen C instrument (Finland). The absorbance was measured at 540 nm every 15 min and each peptide was tested at least 3 times in duplicate. 1.2.10^3 - 7.5.10^3 CFU of bacteria was routinely used in the experiments. Tetracycline in a concentration range of 0.1 - 50 µM was tested as a standard.

Escherichia coli = test: as above; type: cell-based; conditions: minimum inhibitory concentration (MIC) per method, 37°C, 20 h, read-out: Antimicrobial activity IC50 [µM] E. c.
Method: as §1

Pseudomonnas aeruginosa = test: as above; type: cell-based; conditions: minimum inhibitory concentration (MIC) per method, 37°C, 20 h, read-out: Antimicrobial activity IC50 [µM] P.a.
Method: as §1

Staphylococcus aureus = test: as above; type: cell-based; conditions: minimum inhibitory concentration (MIC) per method, 37°C, 20 h, read-out: Antimicrobial activity IC50 [µM] S.a.
Method: as §1

rat red blood cells = test: Determination of hemolytic activity; type: cell-based; conditions: rat red blood cells (5%), 1 h at 37°C, peptides 1-200 µM
Method: The peptides in the concentration (1-200 µM) were incubated with rat red blood cells (5%) for 1 h at 37°C in a physiological solution at a final volume of 0.2 ml. The samples were then centrifuged for 5 min at 250 g, and the absorbance of the supernatant was determined at 540 nm. Supernatants of red blood cells suspended in physiological solution and in 0.2% TRITON X100 in physiological solution served as controls for zero hemolysis (blank) and 100% hemolysis, respectively. Table 3. Antimicrobial and hemolytic activity of melectin (I) and its synthetic analogs of formulas II/1 to II/18

[1] = tested on: human cervix carcinoma HeLa S3; test: Cytostatic effect on cancer cells (e.g. MTT test); type: cell-based; conditions: 24-72 h incubation, 50% decrease in cell viability; read-out: IC50 [µM] HeLaS3
Method: (§2) Tumor cells in suspension or adherent cells were incubated under standard conditions in appropriate culture media for 24-72 h with the peptides in 2-40 micromolar concentration. After this time, the number of living cells was determined using routine tests, e.g. MTT test. The IC50 was determined as concentration of peptides, which caused 50% decrease in cell viability in comparison to controls (no peptide present). In preliminary tests mouse lymphocytic leukemia L1210 (CCL 219), CCRF-CEM T lymphoblastoid (human acute lymphoblastic leukemia, CCL 119), human promyelocytic leukemia HL-60 (CCL 240), human cervix carcinoma HeLa S3, rat pheochromocytoma PC12, human colon adenocarcinoma SW480 (CCL-228), and normal rat epithelial cells (IEC-6, CRL-1592) from ATCC (Manassas, VA, USA), were used. […] Table 4. Cytostatic effect of selected peptides on cancer cells

[2] = tested on: human colon adenocarcinoma SW480; test: Cytostatic effect on cancer cells (e.g. MTT test); type: cell-based; conditions: 24-72 h incubation, 50% decrease in cell viability
Method: as §2

[3] = tested on: human promyelocytic leukemia HL-60; test: Cytostatic effect on cancer cells (e.g. MTT test); type: cell-based; conditions: 24-72 h incubation, 50% decrease in cell viability
Method: as §2

[4] = tested on: mouse lymphocytic leukemia L1210; test: Cytostatic effect on cancer cells (e.g. MTT test); type: cell-based; conditions: 24-72 h incubation, 50% decrease in cell viability
Method: as §2

[5] = tested on: CCRF-CEM T lymphoblastoid; test: Cytostatic effect on cancer cells (e.g. MTT test); type: cell-based, human; conditions: 24-72 h incubation, 50% decrease in cell viability
Method: as §2

Row | Molecule | IC50 (Bacilus subtilis) | IC50 (Escherichia coli) | IC50 (Pseudomonnas aeruginosa) | IC50 (Staphylococcus aureus) | Hemolytic activity (rat red blood cells) | IC50 [1] | IC50 [2] | IC50 [3] | IC50 [4] | IC50 [5]
1 | CC[C@H](C)[C@H](NC(=O)[C@H](CO)NC(=O)[C@H](CC(C)C)NC(=O)[C@H](Cc1ccccc1)NC(=O)CN)C(=O)N[C@@H](CC(C)C)C(=O)N[C@@H](CCCCN)C(=O)N[C@@H](CCCCN)C(=O)N[C@H](C(=O)N[C@@H](CC(C)C)C(=O)N1CCC[C@@H]1C(=O)N[C@@H](CCCCN)C(=O)N[C@H](C(=O)N[C@@H](CCSC)C(=O)N[C@@H](C)C(=O)N[C@@H](Cc1c[nH]cn1)C(=O)N[C@@H](CCSC)C(=O)N[C@@H](CCCCN)C(N)=O)C(C)C)C(C)C [II/15, H-Gly-Phe-Leu-Ser-Ile-Leu-Lys-Lys-Val-Leu-Pro-Lys-Val-Met-Ala-His-Met-Lys-NH2] | 1.7 µM | 4.2 µM | 100 µM | > 100 µM | »200 µM |  |  |  |  | 
2 | CC[C@H](C)[C@H](NC(=O)[C@H](CO)NC(=O)[C@H](CC(C)C)NC(=O)[C@H](Cc1cccc2ccccc12)NC(=O)CN)C(=O)N[C@@H](CC(C)C)C(=O)N[C@@H](CCCCN)C(=O)N[C@@H](CCCCN)C(=O)N[C@H](C(=O)N[C@@H](CC(C)C)C(=O)N1CCC[C@H]1C(=O)N[C@@H](CCCCN)C(=O)N[C@H](C(=O)N[C@@H](CCSC)C(=O)N[C@@H](C)C(=O)N[C@@H](Cc1c[nH]cn1)C(=O)N[C@@H](CCSC)C(=O)N[C@@H](CCCCN)C(N)=O)C(C)C)C(C)C [II/16, H-Gly-1Nal-Leu-Ser-Ile-Leu-Lys-Lys- V al-Leu-Pro-Lys- V al-Met-Ala-His-Met-Lys-NH2] (HELM PEPTIDE1{G.[O=C([C@H](Cc1cccc2ccccc12)N[*:1])[*:2]].L.S.I.L.K.K.V.L.P.K.V.M.A.H.M.K.[am]}$$$$V2.0) | 0.4 µM | 0.4 µM | 17.3 µM | 2.5 µM | 25 µM |  |  |  |  | 
3 | CCCC[C@H](NC(=O)[C@H](Cc1c[nH]cn1)NC(=O)[C@H](C)NC(=O)[C@H](CCCC)NC(=O)[C@@H](NC(=O)[C@H](CCCCN)NC(=O)[C@@H]1CCCN1C(=O)[C@H](CC(C)C)NC(=O)[C@@H](NC(=O)[C@H](CCCCN)NC(=O)[C@H](CCCCN)NC(=O)[C@H](CC(C)C)NC(=O)[C@@H](NC(=O)[C@H](CO)NC(=O)[C@H](CC(C)C)NC(=O)[C@H](Cc1ccccc1)NC(=O)CN)[C@@H](C)CC)C(C)C)C(C)C)C(=O)N[C@@H](CCCCN)C(N)=O [II/18, H-Gly-Phe-Leu-Ser-Ile-Leu-Lys-Lys-Val-Leu-Pro-Lys-Val-Nle-Ala-His-Nle-Lys-NH2] (HELM PEPTIDE1{G.F.L.S.I.L.K.K.V.L.P.K.V.[Nle].A.H.[Nle].K.[am]}$$$$V2.0) | 0.2 µM | 0.75 µM | 17.3 µM | 2.5 µM |  |  |  |  |  | 
4 | CCCC[C@H](NC(=O)[C@H](Cc1cnc[nH]1)NC(=O)[C@H](C)NC(=O)[C@H](CCCC)NC(=O)[C@@H](NC(=O)[C@H](CCCCN)NC(=O)[C@@H]1CCCN1C(=O)[C@H](CC(C)C)NC(=O)[C@@H](NC(=O)[C@H](CCCCN)NC(=O)[C@H](CCCCN)NC(=O)[C@H](CC(C)C)NC(=O)[C@@H](NC(=O)[C@H](CO)NC(=O)[C@H](CC(C)C)NC(=O)[C@H](Cc1ccccc1)NC(=O)CN)[C@@H](C)CC)C(C)C)C(C)C)C(=O)N[C@@H](CCCCN)C(N)=O [II/18, H-Gly-Phe-Leu-Ser-Ile-Leu-Lys-Lys-Val-Leu-Pro-Lys-Val-Nle-Ala-His-Nle-Lys-NH2] (HELM PEPTIDE1{G.F.L.S.I.L.K.K.V.L.P.K.V.[Nle].A.H.[Nle].K.[am]}$$$$V2.0) |  |  |  |  | 50 µM |  |  |  |  | 
5 | GFLSILKKVLGKVMAHMK-NH2 [II/3, H-Gly-Phe-Leu-Ser-lle-Leu-Lys-Lys-Val-Leu-Gly-Lys-Val-Met-Ala-His-Met-Lys-NH2] | 1.3 µM | 1.8 µM | 14.4 µM | 4.3 µM | 41.4 µM |  |  |  |  | 
6 | GFLSILKKVLKVMAHMK-NH2 [II/8, H-Gly-Phe-Leu-Ser-Ile-Leu-Lys-Lys-Val-Leu-... -Lys-Val-Met-Ala-His-Met-Lys-NH2] | 0.9 µM | 1.8 µM | 27.5 µM | 5 µM | 22.9 µM |  |  |  |  | 
7 | H-FLSILKKVLPKVMAHMK-NH2 [II/9, H-Phe-Leu-Ser-Ile-Leu-Lys-Lys-Val-Leu-Pro-Lys-Val-Met-Ala-His-Met-Lys-NH2] | 1.2 µM | 9.08 µM | 62.1 µM | 38.8 µM | >200 µM |  |  |  |  | 
8 | H-GFLSILKKVGPKVMAHMK-NH2 [II/14, H-Gly-Phe-Leu-Ser-Ile-Leu-Lys-Lys-Val-Gly-Pro-Lys-Val-Met-Ala-His-Met-Lys-NH2] | 1.4 µM | 22.5 µM | 80 µM | 80 µM | »200 µM |  |  |  |  | 
9 | H-GFLSILKKVL-NH2 [II/13, H-Gly-Phe-Leu-Ser-Ile-Leu-Lys-Lys-Val-Leu-NH2] | 2.9 µM | 9.1 µM | 58.7 µM | 10.9 µM | >100 µM |  |  |  |  | 
10 | H-GFLSILKKVLAKVMAHMK-NH2 [II/2, H-Gly-Phe-Leu-Ser-Ile-Leu-Lys-Lys-Val-Leu-Ala-Lys-Val-Met-Ala-His-Met-Lys-NH2] | 1.3 µM | 1.6 µM | 18.3 µM | 4.7 µM | 29.7 µM |  |  |  |  | 
11 | H-GFLSILKKVLKKVMAHMK-NH2 [II/1, H-Gly-Phe-Leu-Ser-Ile-Leu-Lys-Lys-Val-Leu-Lys-Lys-Val-Met-Ala-His-Met-Lys-NH2] | 1.4 µM | 1.8 µM | 25.3 µM | 13.3 µM | 27.3 µM |  |  |  |  | 
12 | H-GFLSILKKVLP-NH2 [II/12, H-Gly-Phe-Leu-Ser-Ile-Leu-Lys-Lys-Val-Leu-Pro-NH2] | 13 µM | 78 µM | > 100 µM | > 100 µM | »200 µM |  |  |  |  | 
13 | H-GFLSILKKVLPKVLAHLK-NH2 [II/5, H-Gly-Phe-Leu-Ser-Ile-Leu-Lys-Lys-Val-Leu-Pro-Lys-Val-Leu-Ala-His-Leu-Lys-NH2] | 0.8 µM | 1.2 µM | 20 µM | 5 µM | 43.7 µM |  |  |  |  | 
14 | H-GFLSILKKVLPKVMAKMK-NH2 [II/4, H-Gly-Phe-Leu-Ser-Ile-Leu-Lys-Lys-Val-Leu-Pro-Lys-Val-Met-Ala-Lys-Met-Lys-NH2] | 0.7 µM | 2.1 µM | 33.6 µM | 16.8 µM | >100 µM |  |  |  |  | 
15 | H-GFLSILKKVLPKVMHAMK-NH2 [II/6, H-Gly-Phe-Leu-Ser-Ile-Leu-Lys-Lys-Val-Leu-Pro-Lys-Val-Met-His-Ala-Met-Lys-NH2] | 1.1 µM | 2.1 µM | 35.1 µM | 9.1 µM | 150 µM |  |  |  |  | 
16 | H-GFLSILKKVLPKVMKAMK-NH2 [II/7, H-Gly-Phe-Leu-Ser-Ile-Leu-Lys-Lys-Val-Leu-Pro-Lys-Val-Met-Lys-Ala-Met-Lys-NH2] | 0.8 µM | 1.5 µM | 31.7 µM | 7.7 µM | 70 µM | 9.6 µM | 12.5 µM | 9.1 µM | 6.9 µM | 8.8 µM
17 | H-GLSILKKVLKKVMAHMK-NH2 [II/17, H-Gly-...-Leu-Ser-Ile-Leu-Lys-Lys-Val-Leu-Lys-Lys-Val-Met-Ala-His-Met-Lys-NH2] |  |  |  |  | »200 µM |  |  |  |  | 
18 | H-LSILKKVLPKVMAHMK-NH2 [II/10, H-Leu-Ser-Ile-Leu-Lys-Lys- Val-Leu-Pro-Lys-Val-Met-Ala-His-Met-Lys-NH2] | 7.9 µM | 76.2 µM | > 100 µM | > 100 µM | »200 µM |  |  |  |  | 
19 | H-SILKKVLPKVMAHMK-NH2 [II/11, H-Ser-Ile-Leu-Lys-Lys-Val-Leu-Pro-Lys-Val-Met-Ala-His-Met-Lys-NH2] | 21.8 µM | > 100 µM | > 100 µM | > 100 µM | »200 µM |  |  |  |  | 
